Laboratory results as given in the NIST ThermoML archive (doi:10.1016/j.tca.2010.04.013).
Numbers after ± are expanded uncertainties.

How the values were obtained:
[1] = relative permittivity at various frequencies (dimensionless); xn = mol fraction of the nth substance listed; details: 303.15 K, 101.3 kPa, Liquid, Frequency=1 MHz, capacitance measurements at 1 MHz
[2] = relative permittivity at various frequencies (dimensionless); details: 303.15 K; 101.3 kPa; Liquid; Frequency=1 MHz; capacitance measurements at 1 MHz

CNC=O [N-methylformamide] + CCO
[1]
Details	relative permittivity
x2 = 0	169.76 ± 1
x2 = 0.101	144.63 ± 0.98
x2 = 0.202	123.72 ± 0.84
x2 = 0.302	104.17 ± 0.73
x2 = 0.402	85.99 ± 0.61
x2 = 0.502	71.06 ± 0.51
x2 = 0.602	57.8 ± 0.42
x2 = 0.702	46.91 ± 0.35
x2 = 0.802	37.6 ± 0.29
x2 = 0.901	29.54 ± 0.23

CN(C)C=O [dimethylformamide] + OCCO
Details	relative permittivity
[1], x2 = 0	36.55 ± 0.22

NC=O [formamide]
Details	relative permittivity
[2]	106.14 ± 0.64

CN(C)C=O [dimethylformamide]
Details	relative permittivity
[2]	36.55 ± 0.22

CNC=O [N-methylformamide]
Details	relative permittivity
[2]	169.76 ± 1

CNC=O [N-methylformamide] + OCCO
[1]
Details	relative permittivity
x2 = 0	169.76 ± 1
x2 = 0.105	139.93 ± 0.97
x2 = 0.209	118.26 ± 0.8
x2 = 0.312	102.12 ± 0.68
x2 = 0.413	87.49 ± 0.58
x2 = 0.514	76.46 ± 0.5
x2 = 0.613	67.14 ± 0.44
x2 = 0.711	59.59 ± 0.39
x2 = 0.809	52.6 ± 0.34
x2 = 0.905	46.26 ± 0.31

NC=O [formamide] + OCCO
[1]
Details	relative permittivity
x2 = 0	106.14 ± 0.64
x2 = 0.048	103.75 ± 0.63
x2 = 0.099	100.44 ± 0.62
x2 = 0.151	96.49 ± 0.6
x2 = 0.206	92.28 ± 0.57
x2 = 0.263	88.7 ± 0.55
x2 = 0.322	84.61 ± 0.53
x2 = 0.384	80.3 ± 0.5
x2 = 0.449	75.79 ± 0.48
x2 = 0.517	70.99 ± 0.45
x2 = 0.588	66.04 ± 0.42
x2 = 0.662	61.55 ± 0.39
x2 = 0.74	56.35 ± 0.36
x2 = 0.823	51.05 ± 0.33
x2 = 0.909	46.12 ± 0.3

CN(C)C=O [dimethylformamide] + CCO
[1]
Details	relative permittivity
x2 = 0	36.55 ± 0.22
x2 = 0.087	35.57 ± 0.21
x2 = 0.169	34.72 ± 0.21
x2 = 0.249	33.96 ± 0.21
x2 = 0.325	32.98 ± 0.2
x2 = 0.399	32.16 ± 0.19
x2 = 0.469	31.39 ± 0.19
x2 = 0.537	30.57 ± 0.19
x2 = 0.603	29.63 ± 0.18
x2 = 0.666	28.78 ± 0.18
x2 = 0.726	27.8 ± 0.17
x2 = 0.785	27.05 ± 0.16
x2 = 0.841	26.22 ± 0.16
x2 = 0.896	25.39 ± 0.16
x2 = 0.949	24.65 ± 0.15

NC=O [formamide] + CCO
[1]
Details	relative permittivity
x2 = 0	106.14 ± 0.64
x2 = 0.046	100.82 ± 0.65
x2 = 0.095	95.19 ± 0.62
x2 = 0.146	89.27 ± 0.59
x2 = 0.199	82.58 ± 0.55
x2 = 0.254	76.43 ± 0.51
x2 = 0.312	70.03 ± 0.47
x2 = 0.374	64.23 ± 0.43
x2 = 0.438	57.92 ± 0.39
x2 = 0.506	51.93 ± 0.35
x2 = 0.577	46.28 ± 0.31
x2 = 0.652	41.17 ± 0.28
x2 = 0.732	36.15 ± 0.25
x2 = 0.816	31.37 ± 0.21
x2 = 0.905	27.6 ± 0.18
